According to article PMC9697947 (Viruses, 2022):

Key:
HEV [1] = settings: ribavirin monotherapy; undetectable serum HEV RNA at least six months after cessation; cited from earlier work
eHEV-nanoKAZ [2] = assay: microbe, parasite or virus in culture; settings: Hepatitis E virus, PLC-PRF-5, read-out: Inhibition (%) of intracellular luciferase activity
eHEV-3 (JE03-1760F) [3] = assay: HEV growth in PLC/PRF/5 cells robustly producing eHEV-3; format: cell-based, Hepatitis E virus genotype 3
eHEV-nanoKAZ [4] = assay: Time-of-addition: viral attachment assay (intracellular luciferase activity); format: cell-based, Hepatitis E virus; settings: PLC/PRF/5 cells
eHEV-3 (JE03-1760F) [5] = assay: HEV growth in PLC/PRF/5 cells inoculated with eHEV-3; format: cell-based, Hepatitis E virus genotype 3; settings: 48 dpi
eHEV-4 (HE-JF5/15F) [6] = assay: HEV growth in PLC/PRF/5 cells robustly producing eHEV-4; format: cell-based, Hepatitis E virus genotype 4
eHEV-nanoKAZ [7] = assay: Time-of-addition: viral internalization assay; format: cell-based, Hepatitis E virus; settings: PLC/PRF/5 cells
eHEV-3 (JE03-1760F) [8] = assay: Immunofluorescence assay of HEV ORF2 protein expression in PLC/PRF/5 cells; format: cell-based, Hepatitis E virus genotype 3; settings: day 4 post-inoculation
eHEV-4 (HE-JF5/15F) [9] = assay: HEV growth in PLC/PRF/5 cells inoculated with eHEV-4; format: cell-based, Hepatitis E virus genotype 4; settings: 48 dpi
eHEV-nanoKAZ [10] = assay: Time-of-addition: viral inactivation assay (intracellular luciferase activity); settings: PLC/PRF/5 cells, 4 days post-inoculation
HEV [11] = test system: HEV; parameters: method as in ref 31 = [31]; settings: cited from earlier work
[12] = parameters: method as in ref 47 = [47]; settings: Antiretroviral Pregnancy Registry (APR); cited from earlier work
[13] = ribavirin 40 μM, 60 days after the start of drug treatment, mean of triplicate wells
[14] = ribavirin alone 40 µM, day 60 after the start of drug treatment
[15] = ribavirin 40 μM, mean of triplicate wells

## NC(=O)c1ncn([C@@H]2O[C@H](CO)[C@@H](O)[C@H]2O)n1 [Ribavirin, ribavirin]
HEV [1]
  sustained virological response (SVR), patients achieving: approximately 80%
eHEV-nanoKAZ [2]
  inhibition at 1 µM: 20.4%
  inhibition at 5 µM: 24.2%
  inhibition at 10 µM: 33.3%
  inhibition at 20 µM: 58%
  inhibition at 40 µM: 79.6%
  inhibition at 80 µM: 91%
eHEV-3 (JE03-1760F) [3]; [13]
  Intracellular HEV RNA: 1.6 × 10^7 copies/well (mean)
eHEV-3 (JE03-1760F) [3]; [14]
  HEV RNA titer in culture supernatants: 2.7 × 10^6 copies/mL
eHEV-nanoKAZ [4]; ribavirin 40 µM during attachment
  intracellular luciferase activity: did not decrease intracellular luciferase activity
eHEV-3 (JE03-1760F) [5]; [15]
  Intracellular HEV RNA: 1.2 × 10^8 copies/well (mean)
eHEV-3 (JE03-1760F) [5]; ribavirin monotherapy 40 µM
  HEV RNA titer in culture supernatants: 2.0 × 10^7 copies/mL
eHEV-4 (HE-JF5/15F) [6]; [13]
  Intracellular HEV RNA: 2.3 × 10^7 copies/well (mean)
eHEV-4 (HE-JF5/15F) [6]; [14]
  HEV RNA titer in culture supernatants: 2.9 × 10^7 copies/mL
eHEV-nanoKAZ [7]; ribavirin 40 µM added after attachment
  intracellular luciferase activity: did not decrease intracellular luciferase activity
eHEV-3 (JE03-1760F) [8]; ribavirin 40 µM during 4 h inoculation
  expression of ORF2 protein: detectable
eHEV-4 (HE-JF5/15F) [9]; [15]
  Intracellular HEV RNA: 4.4 × 10^7 copies/well (mean)
eHEV-4 (HE-JF5/15F) [9]; ribavirin monotherapy 40 µM
  HEV RNA titer in culture supernatants: 4.3 × 10^7 copies/mL
eHEV-nanoKAZ [10]; ribavirin 40 µM pre-incubated with eHEV-nanoKAZ
  intracellular luciferase activity: did not decrease intracellular luciferase activity

## CC(C)c1nc(CN(C)C(=O)N[C@H](C(=O)N[C@@H](Cc2ccccc2)C[C@H](O)[C@H](Cc2ccccc2)NC(=O)OCc2cncs2)C(C)C)cs1 [Ritonavir, ritonavir]
eHEV-nanoKAZ [2]
  inhibition at 0.05 µM: 18.1%
  inhibition at 0.1 µM: 29.1%
  inhibition at 0.5 µM: 59.6%
  inhibition at 1 µM: 71.6%
  inhibition at 5 µM: 89.7%
  inhibition at 35 µM: 95.9%
eHEV-nanoKAZ [4]; ritonavir 20 µM during attachment (4 °C 1 h, 37 °C 1 h), compared to untreated control
  intracellular luciferase activity: 100.4%
HEV [11]
  inhibition of HEV growth in cultured cells: potent inhibition of HEV growth in cultured cells
eHEV-nanoKAZ [7]; ritonavir 20 µM added after attachment, 37 °C 2 h, compared to untreated control, p = 0.0036
  intracellular luciferase activity: 9.6%
eHEV-3 (JE03-1760F) [8]; ritonavir 20 µM during 4 h inoculation
  expression of ORF2 protein: undetectable
[12]
  risk of human teratogenicity: no evidence of an increased risk of human teratogenicity
eHEV-nanoKAZ [10]; ritonavir 20 µM pre-incubated with eHEV-nanoKAZ 1 h 37 °C, compared to untreated control
  intracellular luciferase activity: 94.3%

## OC[C@H]1O[C@@](CO)(O[C@H]2O[C@H](CO)[C@@H](O)[C@H](O)[C@H]2O)[C@@H](O)[C@@H]1O [Sucrose]
eHEV-nanoKAZ [7]; sucrose 250 mM added after attachment, 37 °C 2 h, compared to untreated control, p = 0.0033
  intracellular luciferase activity: 14.9%
eHEV-3 (JE03-1760F) [8]; sucrose 250 mM during 4 h inoculation
  expression of ORF2 protein: undetectable
